In US7803792B2, “Quaternary ammonium compounds” (Asahi Kasei Pharma Corporation, priority 2002, dated 2010):

Tests used:
human IBAT = target: T1, human IBAT (Homo sapiens, UniProt Q12908); experiment: In vitro assay of temporarily expressed human IBAT transporter using Cos 7 cells (Test Example 8); format: cell-based; details: Cos 7 cells temporarily expressing human IBAT; [3H] taurocholate 8 μM, 37° C., 60 minutes
T1 construct: expressed in transfected cells; host or cells: Cos 7
T1 sequence (Q12908 1-348): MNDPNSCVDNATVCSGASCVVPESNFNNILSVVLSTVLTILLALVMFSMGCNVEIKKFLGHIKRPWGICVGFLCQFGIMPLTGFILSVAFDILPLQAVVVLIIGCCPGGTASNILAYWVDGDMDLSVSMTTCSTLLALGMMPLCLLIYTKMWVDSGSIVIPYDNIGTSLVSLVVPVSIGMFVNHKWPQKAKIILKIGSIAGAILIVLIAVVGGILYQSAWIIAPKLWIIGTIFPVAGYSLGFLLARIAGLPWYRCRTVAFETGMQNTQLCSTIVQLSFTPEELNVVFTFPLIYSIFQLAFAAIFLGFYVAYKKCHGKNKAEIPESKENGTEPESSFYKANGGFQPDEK
Procedure: In Vitro Assay of Compounds Which Inhibit Temporarily Expressed Human IBAT Transporter or Rat IBAT Transporter Using Cos 7 Cells
In this test example, the in vitro assay of the compounds which inhibit temporarily expressed human IBAT transporter or rat IBAT transporter using Cos cells was carried out according to the method described in Am. J. Physiol., 274, G157-169.
That is, […] Cos 7 were inoculated on a 24-well cell plate. One day later, 0.3 μg per well of cDNA of a human IBAT or a rat IBAT was transfected by using FuGENE6 (manufactured by ROCHE PHARMACEUTICAL CO., LTD.). For the assay, the cells cultured for one day after the transfection were used and the following procedure was followed. The cells were washed once with an assay buffer, Hank's buffer solution containing 25 mM glucose and with 10 mM HEPES (pH 7.4), and then the assay buffer was replaced by an assay buffer to which the test compound was added. After adding [^3H] taurocholate to a final concentration of 8 μM, the cells were incubated at 37° C. for 60 minutes. [^3H] taurocholate was allowed to be incorporated in Cos 7 cells through human IBAT or rat IBAT. The reaction was stopped by washing twice with a buffer prepared by adding 1 mM taurocholate to the assay buffer and lyzing the cells with 0.2M NaOH. Measurement of radioactivity was carried out by introducing the cell lyzate in 4 ml of liquid scintillation cocktail, stirring the mixture well, and then measuring the radioactivity by a scintillation counter.

[1] = test system: Cholic acid-loaded rat model; experiment: Bile acid-decreasing effect in portal vein of rats loaded with cholic acid (Test Example 2); format: in vivo; details: portal vein blood after 2 hours
Procedure: Bile Acid-Decreasing Effect in Portal Vein of Rats Loaded With Cholic Acid
In this test example, the test for confirming the bile acid-decreasing effect in portal vein of cholic acid-loaded rats was carried out according to the method described in Pharmacology and Therapeutics [Jpn Pharmacol. Ther., Vol. 24 Supplement, 1996, 103 (S-577)-110 (S-584)].
That is, 7 to 9 weeks old SD (IGS) rats were starved on the day before the test and thereafter. […] After 2 hours from the administration, a sample of blood was taken from a portal vein and total serum bile acid level was measured to study the effect of the test compound (n=6). Further, as a control group, a group (n=6) loaded with cholic acid (200 mg/kg) only was prepared and the same test procedure was followed. A commercially available kit (trade name: SOTANJUSAN-TEST WAKO-(SOTANJUSAN=total bile acid), manufactured by WAKO PURE CHEMICAL […], LTD.) was used for the measurement of bile acid. Assuming the value of the control group, which is a group in which no test compound was used, as 100%, the rate of decrease (percentage (%) of decrease) of the bile acid level when a fixed amount of the test compound was used was determined.

Caco 2 cells = experiment: Toxicity with respect to alimentary canal: cytotoxicity to Caco 2, LDH activity (Test Example 12); format: cell-based, human; details: LDH activity after 2 hours, relative to cytolytic agent = 100%
Procedure: Toxicity With Respect to Alimentary Canal
To evaluate the toxicity of the compounds of the present invention to the alimentary canal, the cytotoxicity to Caco 2, which is a human originated small intestine epithelial cell line, was tested by referring to the method of Bestwick C S et al. [Biochimica et Biophysica Acta 1474: 47-55, 1999].
That is, Caco 2 cells (purchased from ATCC) were inoculated on a 96-well plate such that there were 10,000 cells/well [MEM-E medium, 10% FBS (Fetal Bovine Serum), 1% NEAA (Non Essential Amino Acid) solution, (both manufactured by GIBCO PHARMACEUTICAL COMPANY)]. After culturing for 48 hours, the test compounds were diluted with the culture medium and added to the respective wells. After 2 hours, 50 μl of the culture broth was collected and the LDH activity in the collected culture broth was measured by using an LDH activity measuring kit (CytoTox 96 Non-Radioactive Cytotoxicity Assay, manufactured by PROMEGA CORPORATION). Relative activities were calculated assuming the LDH activity as 100% when the Caco 2 cells were treated with the cytolytic agent and the obtained relative activities were taken as cytotoxicities to Caco 2 cell.

[2] = 0.1 mg/kg oral with cholic acid 200 mg/kg, HCO-60 0.1%

CCCCC1(CCCC)CS(=O)(=O)c2ccc(N(C)C)cc2C(c2cccc(NC(=S)NCCC[N+](C)(C)Cc3ccccc3)c2)N1.[Br-] (stereo not shown) [Example 425]
IC50 (human IBAT): 170 nM | Rate of decrease (%) of bile acid ([1]; 0.1 mg/kg oral with cholic acid 200 mg/kg, Tween 20 0.05%): 21%

CCCCC1(CCCC)CS(=O)(=O)c2ccc(N(C)C)cc2C(c2cccc(NC(=S)NCCCC[N+](C)(C)Cc3ccccc3)c2)N1.[Br-] (stereo not shown) [Example 801]
Rate of decrease (%) of bile acid [1, 2]: 33%

CCCCC1(CCCC)CS(=O)(=O)c2ccc(N(C)C)cc2C(c2cccc(NC(=S)NCCCCC[N+](C)(C)Cc3ccccc3)c2)N1.[Br-] (stereo not shown) [Example 1178]
IC50 (human IBAT): 93 nM | Rate of decrease (%) of bile acid [1, 2]: 18%

CCCCC1(CCCC)CS(=O)(=O)c2ccc(N(C)C)cc2C(c2cccc(NC(=S)Nc3ccc(C[N+]45CCN(CC4)CC5)cc3)c2)N1.[Br-] (stereo not shown) [Example 3705]
IC50 (human IBAT): 54 nM | Toxicity (%) to Caco 2 (Caco 2 cells; 3 μM): <1% | Toxicity (%) to Caco 2 (Caco 2 cells; 10 μM): <1% | Toxicity (%) to Caco 2 (Caco 2 cells; 30 μM): <1%

CCCCC1(CCCC)CS(=O)(=O)c2ccc(N(C)C)cc2C(c2cccc(NC(=S)Nc3ccc(C[n+]4ccc(C)cc4)cc3)c2)N1.[Br-] (stereo not shown) [Example 3709]
IC50 (human IBAT): 49 nM | Toxicity (%) to Caco 2 (Caco 2 cells; 3 μM): <1% | Toxicity (%) to Caco 2 (Caco 2 cells; 10 μM): <1% | Toxicity (%) to Caco 2 (Caco 2 cells; 30 μM): <1%

CCCCc1ccc[n+](Cc2ccc(NC(=S)Nc3cccc(C4NC(CCCC)(CCCC)CS(=O)(=O)c5ccc(N(C)C)cc54)c3)cc2)c1.[Br-] (stereo not shown) [Example 3723]
IC50 (human IBAT): 25 nM | Toxicity (%) to Caco 2 (Caco 2 cells; 3 μM): <1% | Toxicity (%) to Caco 2 (Caco 2 cells; 10 μM): <1% | Toxicity (%) to Caco 2 (Caco 2 cells; 30 μM): <1%

CCCCC1(CCCC)CS(=O)(=O)c2ccc(N(C)C)cc2C(c2cccc(NC(=S)Nc3ccc(C[n+]4ccc(C#N)cc4)cc3)c2)N1.[Br-] (stereo not shown) [Example 3753]
Rate of decrease (%) of bile acid ([1]; 0.3 mg/kg oral with cholic acid 200 mg/kg, HCO-60 0.1%): 8.5%

CCCCC1(CCCC)CS(=O)(=O)c2ccc(N(C)C)cc2C(c2cccc(NC(=S)Nc3cccc(C[N+](C)(C)Cc4ccccc4)c3)c2)N1.[Br-] (stereo not shown) [Example 4257]
Rate of decrease (%) of bile acid [1, 2]: 30%

CCCCC1(CCCC)CS(=O)(=O)c2ccc(N(C)C)cc2C(c2cccc(NC(=S)Nc3cccc(C[N+]4(Cc5ccccc5)CCC(CO)CC4)c3)c2)N1 (stereo not shown) [Example 4424]
IC50 (human IBAT): 91 nM | Rate of decrease (%) of bile acid [1, 2]: 17%

CCCCC1(CCCC)CS(=O)(=O)c2ccc(N(C)C)cc2C(c2cccc(NC(=S)Nc3cccc(C[N+]4(Cc5ccccc5)CCC(CCO)CC4)c3)c2)N1 (stereo not shown) [Example 4425]
IC50 (human IBAT): 89 nM | Rate of decrease (%) of bile acid [1, 2]: 22%

CCCCC1(CCCC)CS(=O)(=O)c2ccc(N(C)C)cc2C(c2cccc(NC(=S)Nc3cccc(C[N+]45CCC(CC4)CC5)c3)c2)N1 (stereo not shown) [Example 4512]
IC50 (human IBAT): 63 nM | Rate of decrease (%) of bile acid [1, 2]: 37%

CCCCC1(CCCC)CS(=O)(=O)c2ccc(N(C)C)cc2C(c2cccc(NC(=S)Nc3cccc(C[n+]4cc(C)cc(C)c4)c3)c2)N1 (stereo not shown) [Example 4546]
IC50 (human IBAT): 87 nM

CCCCC1(CCCC)CS(=O)(=O)c2ccc(N(C)C)cc2C(c2cccc(NC(=S)Nc3cccc(C[n+]4cc(C)cc(-c5ccccc5)c4)c3)c2)N1 (stereo not shown) [Example 4547]
IC50 (human IBAT): 72 nM

CCCCC1(CCCC)CS(=O)(=O)c2ccc(N(C)C)cc2C(c2cccc(NC(=S)Nc3cccc(C[n+]4ccc(OC)cc4)c3)c2)N1 (stereo not shown) [Example 4551]
IC50 (human IBAT): 76 nM

CCCCC1(CCCC)CS(=O)(=O)c2ccc(N(C)C)cc2C(c2cccc(NC(=S)Nc3cccc(C[n+]4cccc5ccccc54)c3)c2)N1 (stereo not shown) [Example 4585]
IC50 (human IBAT): 78 nM

CCCCC1(CCCC)CS(=O)(=O)c2ccc(N(C)C)cc2C(c2cccc(NC(=S)Nc3cccc(C[n+]4cccc5cc(C)ccc54)c3)c2)N1 (stereo not shown) [Example 4587]
IC50 (human IBAT): 60 nM

CCCCC1(CCCC)CS(=O)(=O)c2ccc(N(C)C)cc2C(c2cccc(NC(=S)Nc3cccc(C[n+]4cccc5cc(C(C)C)ccc54)c3)c2)N1 (stereo not shown) [Example 4589]
IC50 (human IBAT): 46 nM

CCCCC1(CCCC)CS(=O)(=O)c2ccc(N(C)C)cc2C(c2cccc(NC(=S)Nc3cccc(C[n+]4ccc5ccccc5c4)c3)c2)N1 (stereo not shown) [Example 4600]
IC50 (human IBAT): 78 nM

CCCCC1(CCCC)CS(=O)(=O)c2ccc(N(C)C)cc2C(c2cccc(NC(=S)Nc3cccc(C[N+](C)(C)C(C)c4cccc5ccccc45)c3)c2)N1 (stereo not shown) [Example 4605]
IC50 (human IBAT): 79 nM

CCCCC1(CCCC)CS(=O)(=O)c2ccc(N(C)C)cc2C(c2cccc(NC(=S)Nc3ccccc3C[N+]34CCC(CC3)CC4)c2)N1.[Br-] (stereo not shown) [Example 4905]
Rate of decrease (%) of bile acid [1, 2]: 28%

CCCCC1(CCCC)CS(=O)(=O)c2ccc(N(C)C)cc2C(c2ccc(NC(=S)Nc3ccc(C[N+](C)(C)Cc4ccccc4)cc3)cc2)N1.[Br-] (stereo not shown) [Example 5405, Benzyl-(4-{3-[4-(3,3-dibutyl-7-dimethylamino-1,1-dioxo-2,3,4,5-tetrahydro-1,4-benzothiazepin-5-yl)phenyl]thioureido}-benzyl)dimethylammonium bromide]
Rate of decrease (%) of bile acid [1, 2]: 16%

CCCCC1(CCCC)CS(=O)(=O)c2ccc(N(C)C)cc2C(c2cccc(NC(=S)Nc3ccc(C[n+]4ccccc4C)cc3)c2)N1 (stereo not shown) [Example 5407]
IC50 (human IBAT): 52 nM

CCCCC1(CCCC)CS(=O)(=O)c2ccc(N(C)C)cc2C(c2cccc(NC(=S)Nc3ccc(C[n+]4c(C)cc(C)cc4C)cc3)c2)N1 (stereo not shown) [Example 5409]
IC50 (human IBAT): 42 nM

CCCCC1(CCCC)CS(=O)(=O)c2ccc(N(C)C)cc2C(c2cccc(NC(=S)Nc3ccc(C[n+]4cccc(F)c4)cc3)c2)N1 (stereo not shown) [Example 5416]
IC50 (human IBAT): 77 nM

CCCCC1(CCCC)CS(=O)(=O)c2ccc(N(C)C)cc2C(c2cccc(NC(=S)Nc3ccc(C[n+]4cc(O)cc(Cl)c4)cc3)c2)N1 (stereo not shown) [Example 5417]
IC50 (human IBAT): 26 nM

CCCCC1(CCCC)CS(=O)(=O)c2ccc(N(C)C)cc2C(c2cccc(NC(=S)Nc3ccc(C[n+]4cccc(Cl)c4)cc3)c2)N1 (stereo not shown) [Example 5418]
IC50 (human IBAT): 69 nM

CCCCCC1(CCCCC)CS(=O)(=O)c2ccc(N(C)C)cc2C(c2cccc(NC(=S)Nc3ccc(C[N+](C)(C)Cc4ccccc4)cc3)c2)N1.[Br-] (stereo not shown) [Example 5480]
Toxicity (%) to Caco 2 (Caco 2 cells; 3 μM): <1% | Toxicity (%) to Caco 2 (Caco 2 cells; 10 μM): <1% | Toxicity (%) to Caco 2 (Caco 2 cells; 30 μM): <1%
